Source: patent publication US20230263853A1, “ECTOPARASITICIDE VETERINARY COMPOSITION” (priority 2020, published 2023)

Assays:
[1] = test system: Salmonella typhimurium (ATCC 14028); test: In vitro inhibition test against bacteria, Table 7; assay type: cell-based; set-up: key to Inhibitory Activity (stopping power thoroughness and lasting effect): +++ = best; (−) = worst; details: B diluted by 1000 times
Method: (§1) An ectoparasiticide veterinary composition of Example 1 (labelled here as PST22) was tested in an in vitro experimental laboratory to test its efficacy against conventional antibiotics used to control harmful bacteria and fungus that cause untold harm in modern poultry producers. Leading world authorities including the World Health Organisation (WHO) have graded Antimicrobial Resistance (AMR) as a serious global health issue that threatens the prevention and treatment of an increasing range of infections.

[2] = test system: Pseudomonas aeruginosa (ATCC 27853); test: In vitro inhibition test against bacteria, Table 8; assay type: cell-based; set-up: key to Inhibitory Activity (stopping power thoroughness and lasting effect): +++ = best; (−) = worst; details: B diluted by 1000 times
Method: as §1

[3] = test system: Escherichia coli (ATCC25322); test: In vitro inhibition test against bacteria, Table 5; assay type: cell-based; set-up: key to Inhibitory Activity (stopping power thoroughness and lasting effect): +++ = best; (−) = worst; details: B diluted by 1000 times
Method: as §1

[4] = test system: Aspergillus niger (ITDI Ref. No. 3008); test: In vitro inhibition test against fungi, Table 10; assay type: cell-based; set-up: key to Inhibitory Activity (stopping power thoroughness and lasting effect): +++ = best; (−) = worst
Method: (§2) An ectoparasiticide veterinary composition of Example 1 (labelled here as PST22) was tested in an in vitro experimental laboratory to test its efficacy against conventional antibiotics used to control harmful bacteria and fungus that cause untold harm in modern poultry producers.

[5] = test system: Saccharomyces cerevisiae (ATCC 9763); test: In vitro inhibition test against fungi, Table 9; assay type: cell-based; set-up: key to Inhibitory Activity (stopping power thoroughness and lasting effect): +++ = best; (−) = worst
Method: as §2

[6] = test system: Staphylococcus aureus (ATCC 6538P); test: In vitro inhibition test against bacteria, Table 6; assay type: cell-based; set-up: key to Inhibitory Activity (stopping power thoroughness and lasting effect): +++ = best; (−) = worst; details: B diluted by 1000 times
Method: as §1

red mite = test: Weekly mortality in broiler houses with red mite, trial house vs control house (Example 3); assay type: in vivo, Dermanyssus gallinae; details: poultry, over the 28 day period; trial house 4 ml per 10 litres water, control house standard antibiotics
Method: Two broiler houses of poultry were used in the trial, a first “trial house” and a second “control house”. Mortality was recorded weekly to determine the red mite impact on the poultry.
In the trial house, the ectoparasiticide veterinary composition of Example 1 was administered to chickens via the in-line water system at a dose of 4 ml per 10 litres of clean water. The control house used the farm's standard medication program involving the administration of antibiotics (Fosfomycin and enrofloxacin). Flock performance monitoring (measuring the number of mortalities not including the standard cull numbers) was recorded weekly in each house over a 28 day period.

[7] = Average live weight and feed conversion of broiler birds, trial house vs control house (Example 4); assay type: in vivo; details: at 28 days, trial house 1 ml per 1 litre drinking water 6 hours daily, control house antibiotics
Method: Two poultry houses were used in the trial: a “trial house” and a “control house”. Each house contained 37000 broiler birds.
In the trial house, the ectoparasiticide veterinary composition of Example 1 was administered each afternoon continuously for 6 hours at a dosage of 1 ml per 1 litre of clean drinking water. The control house used the farm's standard medication program involving the administration of antibiotics (Fosfomycin and enrofloxacin).
Average live weight of the birds in each house was recorded weekly for a 28 day period. At the end of the trial a feed conversion ration was identified.

[8] = A undiluted (10 mm), Amikacin 30 ug (8 mm)
[9] = A undiluted (10 mm), Amikacin 30 ug (6 mm)
[10] = A pure (10 mm), B 1 ml/L (10 mm), Clotrimazole (10 mm)
[11] = PST22 - B 1 ml/L (10 mm), Nystatin (10 mm)
[12] = A undiluted (10 mm), Oxacillin 1 ug (6 mm)

NCC[C@H](O)C(=O)N[C@@H]1C[C@H](N)[C@@H](O[C@H]2O[C@H](CN)[C@@H](O)[C@H](O)[C@H]2O)[C@H](O)[C@H]1O[C@H]1O[C@H](CO)[C@@H](O)[C@H](N)[C@H]1O [Amikacin]
Average of 3× trials Reactivity Killing Power [1, 8]: 16.30 mm
Trial 1 [1, 8]: 16.12 mm
Trial 2 [1, 8]: 16.26 mm
Trial 3 [1, 8]: 16.52 mm
Inhibitory Activity (stopping power thoroughness and lasting effect) ([1]; A undiluted, Amikacin 30 ug): +++
Average of 3× trials Reactivity Killing Power [2, 8]: 17.33 mm
Trial 1 [2, 8]: 17.89 mm
Trial 2 [2, 8]: 17.08 mm
Trial 3 [2, 8]: 17.02 mm
Inhibitory Activity (stopping power thoroughness and lasting effect) ([2]; A undiluted, Amikacin 30 ug): +++
Average of 3× trials Reactivity Killing Power [3, 9]: 16.24 mm
Trial 1 [3, 9]: 16.20 mm
Trial 2 [3, 9]: 16.39 mm
Trial 3 [3, 9]: 16.12 mm
Inhibitory Activity (stopping power thoroughness and lasting effect) ([3]; A undiluted, Amikacin 30 ug): +++

Clc1ccccc1C(c1ccccc1)(c1ccccc1)n1ccnc1 [Clotrimazole]
Average of 3× trials (larger the better) Reactivity killing power [4, 10]: 16.06 mm
Trial 1 [4, 10]: 15.80 mm
Trial 2 [4, 10]: 16.20 mm
Trial 3 [4, 10]: 16.18 mm
Inhibitory Activity (stopping power thoroughness and lasting effect) ([4]; A pure, B 1 ml/L, Clotrimazole): +++

C[C@@H]1[C@H](O)[C@@H](C)/C=C/C=C/CC/C=C/C=C/C=C/C=C/C(O[C@H]2O[C@H](C)[C@@H](O)[C@H](N)[C@@H]2O)CC2O[C@](O)(CC(O)C(O)CCC(O)CC(O)CC(O)CC(=O)O[C@H]1C)CC(O)C2C(=O)O (stereo partly drawn) [Nystatin]
Average of 3× trials Reactivity Killing Power [5, 11]: 4 mm
Total Mean Zone of Inhibition [5, 11]: 21.58 mm
Trail 2 [5, 11]: 21.30 mm
Trial 1 [5, 11]: 21.28 mm
Trial 3 [5, 11]: 22.17 mm
Inhibitory Activity (stopping power thoroughness and lasting effect) ([5]; PST22 - B 1 ml/L, Nystatin): +++

Cc1onc(-c2ccccc2)c1C(=O)N[C@@H]1C(=O)N2[C@@H]1SC(C)(C)[C@@H]2C(=O)O [Oxacillin]
Average of 3× trials Reactivity Killing Power [6, 12]: 21.25 mm
Trial 1 [6, 12]: 22.82 mm
Trial 2 [6, 12]: 20.20 mm
Trial 3 [6, 12]: 20.72 mm
Inhibitory Activity (stopping power thoroughness and lasting effect) ([6]; A undiluted, Oxacillin 1 ug): +++

Fosfomycin and enrofloxacin
mortality % (red mite): 5%
final average live weight [7]: 1370 g
